In ChEMBL document CHEMBL1201862, “PubChem BioAssay data set” (2004):
Where “and” joins values, the source holds several entries; their conditions need not be identical. Equal values may be shown once. Where a name gives a salt, the structure may show the parent alone. Values belong to the molecule of their own block, whether it stands above or below them. Calls of active or inactive are those of the source.

Tests used:
[1] = target: T1, Cytochrome P450 1A2 (Homo sapiens, UniProt P05177);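 note: PubChem cytochrome P450 panel assay, CYP1A2 panel member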
T1 sequence (P05177 whole entry): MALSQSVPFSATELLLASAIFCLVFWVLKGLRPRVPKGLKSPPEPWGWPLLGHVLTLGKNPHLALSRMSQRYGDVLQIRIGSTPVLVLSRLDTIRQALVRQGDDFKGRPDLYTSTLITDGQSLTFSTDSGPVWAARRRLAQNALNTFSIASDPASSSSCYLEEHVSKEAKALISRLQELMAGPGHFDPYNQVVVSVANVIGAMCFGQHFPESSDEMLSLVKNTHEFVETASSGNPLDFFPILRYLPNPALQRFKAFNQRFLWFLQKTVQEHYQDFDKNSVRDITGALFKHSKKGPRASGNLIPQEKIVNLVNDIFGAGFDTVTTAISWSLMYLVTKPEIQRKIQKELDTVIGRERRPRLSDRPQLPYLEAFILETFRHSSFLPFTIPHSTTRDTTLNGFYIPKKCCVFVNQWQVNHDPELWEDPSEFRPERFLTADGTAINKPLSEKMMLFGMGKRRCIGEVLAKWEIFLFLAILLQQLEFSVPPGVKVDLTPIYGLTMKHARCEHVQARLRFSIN

[2] = target: Cytochrome P450 3A4 (Homo sapiens, UniProt P08684);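 note: CYP3A4 tested as one member of a cytochrome P450 panel screen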
[3] = system: H9c2; experiment: cells; format: functional, cell-based; settings: Rattus norvegicus, H9c2, Myocardium;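 note: confirmatory concentration-response retest of ultra-high-throughput screening hits for modulation of myocardial damage; cell death induced by hydrogen peroxide oxidative stress; compound pretreatment for 60 min then peroxide exposure for 2 h; potency is for protecting the cells against peroxide damage rather than for killing them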
[4] = fluconazole-exposed Candida albicans growth modulators – fluorescence, retest, confirmation (AID 2467); format: functional, cell-based
[5] = NIH-3T3 fibroblast cytotoxicity, dose response, cytotoxicity control, cell-based, fluorescence, Alamar Blue, secondary assay (AID 2327); format: functional;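 note: NIH-3T3 mouse fibroblasts cultured with fluconazole at 8 µg/mL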
[6] = target: Cytochrome P450 2C9 (Homo sapiens, UniProt P11712)
[7] = target: Cytochrome P450 2C19 (Homo sapiens, UniProt P33261); experiment: Cytochrome panel assay with activity outcomes. Panel member name: p450-cyp2c19 Compounds with AC50 equal or less than 10 uM are considered active; format: functional
[8] = viability of uninfected HEp-2 cells – cell-based, HTS, cytotoxicity control for RSV inhibitor project, dose response (AID 2410); format: functional; settings: human respiratory syncytial virus
[9] = target: T2, Heat shock factor protein 1 (Mus musculus, UniProt P38532); experiment: enhancement of HSF1-driven luciferase signal – cell-based, NIH3T3, luminescence, dose retest, confirmation (AID 435004); format: functional;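 note: stress induced by proteasome inhibitor MG132 added 30 min after compound; luciferase reporter driven by HSF1 response element in NIH3T3 cells; actives raise luminescence as potentiators of the MG132 stress response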
T2 sequence (P38532 whole entry): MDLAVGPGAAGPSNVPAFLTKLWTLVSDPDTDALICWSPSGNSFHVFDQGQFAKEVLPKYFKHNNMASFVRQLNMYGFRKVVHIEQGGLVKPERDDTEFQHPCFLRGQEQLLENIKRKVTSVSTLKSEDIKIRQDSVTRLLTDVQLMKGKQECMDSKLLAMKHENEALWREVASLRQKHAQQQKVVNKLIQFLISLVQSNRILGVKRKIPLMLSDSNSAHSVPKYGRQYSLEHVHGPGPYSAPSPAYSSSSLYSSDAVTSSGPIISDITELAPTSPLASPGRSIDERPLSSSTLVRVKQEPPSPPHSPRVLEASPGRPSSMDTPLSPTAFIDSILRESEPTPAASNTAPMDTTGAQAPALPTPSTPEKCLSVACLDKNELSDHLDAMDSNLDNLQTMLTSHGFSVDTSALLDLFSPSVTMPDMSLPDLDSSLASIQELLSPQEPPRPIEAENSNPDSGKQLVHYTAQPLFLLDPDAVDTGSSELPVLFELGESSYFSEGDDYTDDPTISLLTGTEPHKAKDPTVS

[10] = target: Cytochrome P450 2D6 (Homo sapiens, UniProt P10635);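 note: CYP2D6 member of a cytochrome P450 panel assay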
[11] = HIV-1 AD8 envelope cell-cell fusion blockers – cherry-pick, dose response (AID 652062); format: functional, cell-based;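 note: luciferase signal from cell-cell fusion driven by HIV-1 clade B AD8 Env; potency is for inhibitors of fusion seen as a drop in luminescence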
[12] = target: Paired box protein Pax-8 (Homo sapiens, UniProt Q06710); experiment: PAX8 transcriptional activity inhibition in RMG-I – RMG-I cells, luciferase, cherry-pick, dose response (AID 687027); format: functional, cell-based;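 note: luciferase reporter driven by Pax8 target thyroperoxidase promoter measured by SteadyGlo luminescence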
[13] = reduction of Shn3 3'UTR-driven luciferase in osteoblasts – cell-based, Clone20 osteoblasts, firefly luciferase, cherry-picked, dose response (AID 624132); format: functional;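 note: firefly luciferase luminescence from reporter carrying the Shn3 3'UTR in osteoblasts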
[14] = system: INS1; experiment: INS-1E survival protection against cytokine death – cell-based, luminescence, retest, dose response (AID 449756); format: functional; settings: Rattus norvegicus;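 note: cell death triggered by IL-1 beta plus TNF-alpha plus IFN-gamma mixture; protective hits raise ATP signal compared with cytokine alone wells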

Cytochrome P450 2C9, sequence (P11712 whole entry): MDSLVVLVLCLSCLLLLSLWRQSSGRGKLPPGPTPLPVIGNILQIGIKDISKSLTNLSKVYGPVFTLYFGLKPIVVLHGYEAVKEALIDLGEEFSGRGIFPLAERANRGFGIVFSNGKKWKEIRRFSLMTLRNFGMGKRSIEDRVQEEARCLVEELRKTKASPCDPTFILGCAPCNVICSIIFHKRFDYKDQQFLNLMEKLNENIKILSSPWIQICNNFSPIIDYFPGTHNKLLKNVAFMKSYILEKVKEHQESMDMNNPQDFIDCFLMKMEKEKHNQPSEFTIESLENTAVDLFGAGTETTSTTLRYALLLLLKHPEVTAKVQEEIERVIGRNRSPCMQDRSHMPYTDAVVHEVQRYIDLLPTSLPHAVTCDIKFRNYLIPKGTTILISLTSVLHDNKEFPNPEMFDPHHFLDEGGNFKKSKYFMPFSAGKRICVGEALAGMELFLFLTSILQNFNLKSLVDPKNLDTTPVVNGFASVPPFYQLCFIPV
Cytochrome P450 2C19, sequence (P33261 whole entry): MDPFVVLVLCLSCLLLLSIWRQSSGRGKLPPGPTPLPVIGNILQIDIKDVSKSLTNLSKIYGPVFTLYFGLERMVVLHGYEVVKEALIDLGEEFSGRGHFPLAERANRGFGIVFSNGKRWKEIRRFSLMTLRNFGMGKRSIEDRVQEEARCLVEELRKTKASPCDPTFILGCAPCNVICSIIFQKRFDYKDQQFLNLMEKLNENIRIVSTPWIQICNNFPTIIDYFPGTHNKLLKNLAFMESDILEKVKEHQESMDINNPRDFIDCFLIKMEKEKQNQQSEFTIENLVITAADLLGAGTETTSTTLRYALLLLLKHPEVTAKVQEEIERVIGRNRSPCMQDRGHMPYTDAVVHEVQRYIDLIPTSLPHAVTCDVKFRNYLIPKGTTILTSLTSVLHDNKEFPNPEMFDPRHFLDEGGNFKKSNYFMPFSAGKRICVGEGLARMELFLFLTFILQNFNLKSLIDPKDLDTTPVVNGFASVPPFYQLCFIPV
Cytochrome P450 2D6, sequence (P10635 whole entry, the tested form may be a part): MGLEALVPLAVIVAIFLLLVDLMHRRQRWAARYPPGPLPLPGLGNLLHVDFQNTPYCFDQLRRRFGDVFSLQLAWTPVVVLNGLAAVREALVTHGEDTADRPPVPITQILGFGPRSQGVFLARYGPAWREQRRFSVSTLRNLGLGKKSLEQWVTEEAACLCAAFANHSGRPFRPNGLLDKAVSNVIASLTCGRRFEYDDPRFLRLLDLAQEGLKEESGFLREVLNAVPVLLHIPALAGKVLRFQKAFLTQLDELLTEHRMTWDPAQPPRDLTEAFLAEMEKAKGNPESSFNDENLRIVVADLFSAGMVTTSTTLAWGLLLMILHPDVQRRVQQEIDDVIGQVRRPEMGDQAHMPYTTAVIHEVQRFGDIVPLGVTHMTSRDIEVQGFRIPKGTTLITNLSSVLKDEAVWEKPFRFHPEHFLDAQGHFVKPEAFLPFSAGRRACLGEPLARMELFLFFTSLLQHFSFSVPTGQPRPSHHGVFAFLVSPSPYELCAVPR
Cytochrome P450 3A4, sequence (P08684 whole entry): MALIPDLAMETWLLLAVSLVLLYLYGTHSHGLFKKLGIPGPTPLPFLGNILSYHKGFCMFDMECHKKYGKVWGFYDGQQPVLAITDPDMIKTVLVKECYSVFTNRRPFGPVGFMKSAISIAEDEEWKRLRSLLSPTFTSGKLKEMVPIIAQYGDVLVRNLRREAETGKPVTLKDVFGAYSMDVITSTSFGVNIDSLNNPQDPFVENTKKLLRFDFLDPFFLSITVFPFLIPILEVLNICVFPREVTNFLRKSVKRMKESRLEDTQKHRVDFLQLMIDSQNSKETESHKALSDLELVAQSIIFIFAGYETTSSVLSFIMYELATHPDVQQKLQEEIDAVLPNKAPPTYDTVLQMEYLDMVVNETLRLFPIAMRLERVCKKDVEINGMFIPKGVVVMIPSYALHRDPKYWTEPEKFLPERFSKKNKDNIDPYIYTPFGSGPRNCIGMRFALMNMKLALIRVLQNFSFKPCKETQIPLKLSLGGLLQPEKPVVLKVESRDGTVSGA
Paired box protein Pax-8, sequence (Q06710 whole entry): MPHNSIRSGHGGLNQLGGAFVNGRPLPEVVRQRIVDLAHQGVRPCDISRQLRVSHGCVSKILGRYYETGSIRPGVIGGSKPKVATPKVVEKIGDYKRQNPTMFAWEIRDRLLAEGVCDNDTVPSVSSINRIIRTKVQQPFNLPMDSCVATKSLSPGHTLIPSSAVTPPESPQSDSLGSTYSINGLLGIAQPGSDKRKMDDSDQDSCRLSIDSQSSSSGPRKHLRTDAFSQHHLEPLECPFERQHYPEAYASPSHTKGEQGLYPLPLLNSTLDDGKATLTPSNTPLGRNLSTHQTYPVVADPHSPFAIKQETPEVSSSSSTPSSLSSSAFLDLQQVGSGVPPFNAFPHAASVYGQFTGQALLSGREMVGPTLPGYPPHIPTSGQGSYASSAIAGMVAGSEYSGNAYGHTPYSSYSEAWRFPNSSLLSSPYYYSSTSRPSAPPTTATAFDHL

SMILES: CC(=O)Nc1cccc(-c2cc(NC=O)c3ncc(-c4ccc(C(C)=O)cc4)n3c2)c1
IC50 [3]: 11.2 µM (active)

SMILES: O=S(=O)(Nc1nc2ccccc2s1)c1ccc(Br)s1
EC50 [4]: 1.94 µM (active) | EC50 [5]: > 150 µM (inactive)

SMILES: OCCN1CCN(c2nc(N3CCCCC3)nc(N3CCCCC3)n2)CC1
AC50 [6]: 15.8 µM (inconclusive) | AC50 ([7]; read-out: AC50): 39.8 µM (inconclusive) | AC50 [2]: 14.1 µM (inconclusive)

SMILES: COc1ccc(Br)cc1C(=O)Nc1cccc(NC(=O)c2ccco2)c1
IC50 [3]: > 79 µM (inactive) | CC50 [8]: 29.1 µM (active)

SMILES: Cn1c2ccc(F)cc2c2ncn(CCN3CCOCC3)c(=O)c21
EC50 [9]: > 260 µM (inactive)

SMILES: C[C@@H]1OC=C2[C@@H](O)[C@H]3O[C@H]3C(=O)[C@]23[C@@H]2O[C@H](C)C(C4=C2[C@@H](O)[C@H]2O[C@@H]2C4=O)[C@@H]13
AC50 [7]: inconclusive

SMILES: CCn1ncc(C2=NOC(C(=O)Nc3ccc(C)cc3)C2)c1C (configuration not stated)
AC50 [11]: 32.8 µM (active)

SMILES: COc1ccc(NC(=O)N(C)[C@H]2C[C@H]3c4[nH]c5ccc(-c6ccc7c(c6)OCO7)cc5c4CCN3C[C@H]2[C@H](C)O)cc1
IC50 [3]: > 79 µM (inactive)

SMILES: Cc1nn2c(-c3cccc(NC(=O)c4ccco4)c3)nnc2c2ccccc12
IC50 [3]: > 79 µM (inactive)

SMILES: C=CCNC(=S)N/N=C/c1ccc(-c2ccc(Br)cc2)o1
EC50 [9]: 134 µM (active)

SMILES: COC(=O)Sc1nc(N2CCOCC2)c2c(c1C#N)CC(C)(C)OC2
IC50 [3]: 38.6 µM (inactive)

SMILES: C=CC[C@@H](CC(=O)N[C@H](CO)Cc1ccccc1)C(=O)N[C@H](COC(=O)[C@@H](CC=C)Cc1ccc(F)cc1)Cc1c[nH]c2ccccc12
AC50 [12]: 8.96 µM (active)

SMILES: COc1ccc(CCNC(=O)c2c(O)c3ccccc3n(C)c2=O)cc1
EC50 [4]: > 38 µM (not active) | EC50 [5]: 72.2 µM (active)

SMILES: CC(C)NCC(O)COc1cccc2ccccc12 (configuration not stated) [PROPRANOLOL HYDROCHLORIDE]
AC50 [13]: 23.6 µM (active)

SMILES: O=C(NC12CC3CC(CC(C3)C1)C2)N1CCN(c2nc(-c3ccccc3)cs2)CC1
AC50 [1]: 6.31 µM (inconclusive) | AC50 [2]: 11.2 µM (inconclusive)

SMILES: CC(=O)OC(C)(C)/C=C/C(=O)[C@](C)(O)C1[C@H](O)C[C@@]2(C)C3CC=C4C(C=C(O[C@@H]5O[C@H](CO)[C@@H](O)[C@H](O)[C@H]5O)C(=O)C4(C)C)[C@]3(C)C(=O)C[C@]12C (some centres not stated)
AC50 [12]: 7.14 µM (active)

SMILES: Cc1[nH]c2ccccc2c1/C=C/c1cc[n+](C)cc1
EC50 [4]: > 38 µM (not active) | EC50 [5]: 120 µM (inconclusive) | AC50 [10]: 17.8 µM (inconclusive)

SMILES: N[C@H](C(=O)O)c1cc(O)cc(O)c1
AC50 [1]: 31.6 µM (inconclusive) | AC50 ([7]; read-out: AC50): 15.8 µM (inconclusive) and 10 µM (inconclusive)

SMILES: COc1ccccc1OCC(=O)Nc1cccc(-c2nnc(-c3ccco3)o2)c1
IC50 [3]: > 79 µM (inactive)

SMILES: Cc1ccc(-c2csc(NC(=O)Cn3[nH]c(=O)c4ccccc4c3=O)n2)cc1
IC50 [3]: > 79 µM (inactive)

SMILES: COc1cc(NC(=O)c2cc3c(Cl)nc4ccccc4c3s2)cc(OC)c1OC
AC50 [13]: 24.4 µM (active)

SMILES: O=C(c1cc(COc2cccc(C(F)(F)F)c2)on1)N1CCC(c2ccncc2)CC1
EC50 [4]: > 38 µM (not active) | EC50 [5]: > 150 µM (inactive) | AC50 [11]: 6.22 µM (active) | AC50 [14]: 5.33 µM (active)

SMILES: Cn1cccc1C(=O)N1CCC2(CCCN(C(=O)Nc3cccc(F)c3)C2)CC1
AC50 [2]: 10 µM (inconclusive)

SMILES: COc1nccc(-c2c(-c3ccc(F)cc3)ncn2C2CCC(O)CC2)n1 (configuration not stated)
AC50 [1]: 31.6 µM (inconclusive) | AC50 [6]: 7.94 µM (inconclusive) | AC50 ([7]; read-out: AC50): 7.94 µM (inconclusive) | AC50 [10]: 12.6 µM (inconclusive)

SMILES: CCOC(=O)c1cnc(Nc2nc3ccccc3o2)nc1CSc1nnc(C)s1
IC50 [3]: 13.4 µM (active)

SMILES: COC(=O)/C(=C\c1ccc([N+](=O)[O-])o1)NC(=O)c1ccccc1
EC50 [4]: 0.53 µM (active) | EC50 [5]: > 160 µM (inactive)

Now from value to molecule:

AC50 [1]: 0.0631 µM (inconclusive) | AC50 [2]: 17.8 µM (inconclusive)
SMILES: COc1ccc(C2C(C(=O)N3CCOCC3)CCC(=O)N2c2ccc(OC)cc2)cc1 (configuration not stated)

AC50 [2]: 22.4 µM (inconclusive)
SMILES: CCCCCOC(=O)CSc1nnc(-c2ccccc2)c(O)n1

EC50 [9]: 21.4 µM (active)
SMILES: CC1=Nc2ccccc2/C1=C/c1nc(-c2ccc(C)s2)oc1O

AC50 [6]: 14.1 µM (inconclusive) | AC50 [10]: 14.1 µM (inconclusive) | AC50 [2]: 22.4 µM (inconclusive)
SMILES: O=C1c2ccccc2NC(c2ccc3c(c2)OCO3)N1O (configuration not stated)

AC50 [6]: 25.1 µM (inconclusive) | AC50 ([7]; read-out: AC50): 39.8 µM (inconclusive) | AC50 [2]: 15.8 µM (inconclusive)
SMILES: Cc1nc2cncnc2n(Cc2ccc(F)cc2)c1=O

AC50 [2]: 1.26 µM (inconclusive)
SMILES: CN(C)Cc1ccccc1-c1cncnc1NCc1cccs1

EC50 [9]: 248 µM (active)
SMILES: C[C@H](NC(=O)[C@@H]1CSC2c3ccccc3C(=O)N21)C(=O)NCCc1ccccc1 (some centres not stated)

EC50 [9]: > 260 µM (inactive)
SMILES: COC(=O)c1ccccc1NC(=O)CSc1nc(Nc2ccccc2)nc(N2CCOCC2)n1

EC50 [9]: 93.6 µM (active)
SMILES: Brc1ccc2c(c1)C(c1cccnc1)=NNC(c1cccs1)=N2

EC50 [9]: 31.7 µM (active)
SMILES: CCOC(=O)COc1ccc(/C=C2/S/C(=N/c3ccccc3)N(Cc3cccnc3)C2=O)cc1OC

AC50 [10]: 25.1 µM (inconclusive) | AC50 [2]: 5.01 µM (inconclusive)
SMILES: COc1ccc(CNc2nc(-c3ccc(N(C)C)cc3)nc3ccccc23)c(OC)c1

AC50 [1]: 15.8 µM (inconclusive) | AC50 [2]: 25.1 µM (inconclusive)
SMILES: COC(=O)C1(CC(C)C)C=C2C(=C(c3ccccc3)C(=O)C2C)CN1 (configuration not stated)

EC50 [9]: > 260 µM (inactive)
SMILES: O=C(CC(c1ccco1)S(=O)(=O)c1ccccc1)c1ccc(F)cc1 (configuration not stated)

AC50 [1]: 14.1 µM (inconclusive) | AC50 [2]: 10 µM (inconclusive)
SMILES: CC1=CC(=O)N(c2cccc(C(F)(F)F)c2)C1c1ccc(Cl)cc1 (configuration not stated)

EC50 [9]: > 260 µM (inactive)
SMILES: CCn1cnc2c1c(=O)n(Cc1nnc3n1-c1ccccc1SC3)c(=O)n2Cc1ccccc1

EC50 [9]: > 260 µM (inactive)
SMILES: Cc1ccc(NC(=NOCc2ccc(Cl)cc2Cl)c2nonc2N)c(C)c1

AC50 ([7]; read-out: AC50): 7.08 µM (inconclusive)
SMILES: O=C(NCC1CCCO1)C1CCC(=O)N1CCc1ccccc1 (configuration not stated)

EC50 [9]: 10.7 µM (active)
SMILES: O=c1c2ccccc2nnn1CSc1ncnc2ccccc12

AC50 [1]: 12.6 µM (inconclusive) | AC50 [6]: 12.6 µM (inconclusive) | AC50 ([7]; read-out: AC50): 0.0501 µM (inconclusive)
SMILES: Cc1ccc(S(=O)(=O)N/N=C/c2cccn2-c2ccc(Cl)cc2)cc1

EC50 [9]: > 260 µM (inactive)
SMILES: COc1cc(C(=O)Nc2ccc(S(=O)(=O)N3CCc4ccccc43)cc2)cc(OC)c1OC
